Measured values: PubChem BioAssay (NCI)
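Step 1: Grow cells in 96-well plates. Step 2: Expose to compound for 48 hours at 5 concentrations. Step 3: Interpolate endpoints linearly; if unreached, use highest concentration. At the GI50, growth is halved. TGI denotes the concentration required for complete inhibition of growth.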

Key:
Assay in all cases: NCI tumour cell line growth inhibition, 48 h
[1] = system: LOX IMVI melanoma
[2] = system: NCI-H226 lung
[3] = system: SF-295 CNS
[4] = system: SK-MEL-5 melanoma
[5] = system: SN12C renal
[6] = system: SNB-75 CNS
[7] = system: CCRF-CEM leukemia
[8] = system: COLO 205 colon
[9] = system: HCT-15 colon
[10] = system: U251 CNS

| Compound | GI50 [1] [µM] | TGI [1] [µM] | GI50 [2] [µM] | TGI [2] [µM] | GI50 [3] [µM] | TGI [3] [µM] | GI50 [4] [µM] | TGI [4] [µM] | GI50 [5] [µM] | TGI [5] [µM] | GI50 [6] [µM] | TGI [6] [µM] | TGI [7] [µM] | TGI [8] [µM] | TGI [9] [µM] | TGI [10] [µM] | GI50 [7] [µM] | GI50 [8] [µM] | GI50 [9] [µM] | GI50 [10] [µM] |
| --- | --- | --- | --- | --- | --- | --- | --- | --- | --- | --- | --- | --- | --- | --- | --- | --- | --- | --- | --- | --- |
| Cn1cnnc1[S-].[Au+].c1ccc([PH+](c2ccccc2)c2ccccc2)cc1 | 1.35 | 2.71 | 2.75 | 9.08 | 1.85 | 3.82 | 1.46 | 2.91 | 1.7 | 3.12 | 1.43 | 2.74 |  |  |  |  |  |  |  |  |
| C=C1CC[C@H]2C(C)=CC[C@H]3C(=C)C(=O)O[C@@H]3[C@@H]12 |  | > 100 |  | > 100 |  | > 100 |  | > 100 |  | > 100 |  |  | > 100 | > 100 | > 100 | > 100 |  |  |  |  |
| COc1ccc(-c2cc(/C=C/C(=O)c3ccc(N)cc3)[nH]n2)cc1 |  |  | 2.05 | 5.57 | 3.09 | 13.1 | 2.71 | 9.25 | 1.89 | 6.63 | 2.25 | 11.4 | 4.91 | 3.45 | 3.62 | 2.57 | 1.32 | 1.85 | 1 | 1.24 |
| O=C1CCC(=O)N1Sc1ccccc1 |  | > 100 |  |  |  | > 100 |  | > 100 |  | > 100 |  | > 100 | > 100 | > 100 | > 100 | > 100 |  |  |  |  |
| O=C(O)CSc1n[nH]c(-c2ccco2)n1 |  | > 100 |  | > 100 |  | > 100 |  | > 100 |  | > 100 |  | > 100 | > 100 | > 100 |  | > 100 |  |  |  |  |
| CC(C)OP(=O)(O)c1ncc(-c2ccc(C(F)(F)F)cc2)c(NC2CCCCCC2)n1 |  |  | > 100 | > 100 | > 100 | > 100 | 51 | > 100 | > 100 | > 100 | > 100 | > 100 | > 100 | > 100 | > 100 | > 100 | > 100 | > 100 | > 100 | 77.9 |
| Cc1cc(S(N)(=O)=O)c(S/C(=N\NS(=O)(=O)c2ccccc2)c2ccc(Cl)cc2)cc1Cl | > 100 | > 100 | > 100 | > 100 | 22.5 | > 100 | 67.9 | > 100 | 46.5 | > 100 |  |  | > 100 | > 100 | > 100 | > 100 | 99.7 | 97.8 | > 100 | > 100 |
| COc1ccc(-c2c(N)noc2-c2cc(OC)c3c(c2)OCCO3)cc1 | 0.0451 | 24 |  |  | < 0.01 | 22.3 | < 0.01 | 0.176 | 0.0438 | > 100 | < 0.01 | 39 | 1.74 | 0.0398 | > 100 |  | 0.0166 | < 0.01 | < 0.01 | < 0.0119 |
| CCCCCC[C@H]1C(=O)O[C@H](C)[C@H](NC(=O)c2cccc(NC=O)c2OC)C(=O)O[C@@H](C)[C@@H]1OC(=O)CCC (tested in a mixture with another compound) | 8.67 | 23.8 | 14.7 | 39.4 | 5.99 | 20.8 | 3.94 | 14.5 | 16.2 | 37.1 |  |  | 27.2 | 26.7 | 33.3 | 21.5 | 3.81 | 12.6 | 11.1 | 8.2 |
| O=NNc1ccc(S(=O)(=O)c2ccc3ccccc3c2)cn1 |  |  |  | > 100 |  | > 100 |  | > 100 |  | > 100 |  | > 100 | > 100 | > 100 | > 100 | > 100 |  |  |  |  |
| O=[N+]([O-])/C=C/c1ccc(Cl)cc1[N+](=O)[O-] |  |  | 2.43 | 6.96 | 6.72 | 21.6 | 8.47 | 21.5 | 3.08 | 20.9 | 3.79 | 15.9 | 8.85 | 3.47 | 5.72 | 3.67 | 1.12 | 1.81 | 2.2 | 1.95 |
| CC(=O)Oc1cc2cnc3c4cc(OC(C)=O)c(OC(C)=O)cc4ccc3c2cc1OC(C)=O | 1.23 | > 100 | 2.04 | 8.91 | 3.36 | > 100 |  |  | 2.18 | > 100 | 0.25 | 7.7 | > 100 | > 100 | > 100 | 10.6 | 0.608 | 4.3 | 1.06 | 0.548 |
| CN(C)CCN1CCc2c([nH]c3ccccc23)C1c1cccnc1 (configuration not stated) |  |  |  |  |  | > 100 |  | > 100 |  | > 100 |  | > 100 | > 100 |  | > 100 | > 100 |  |  |  |  |
| CS(=O)(=O)Nc1cc(-c2ccc3ncnc(Nc4cccc(Cl)c4)c3c2)cnc1Cl | 0.33 | 2.19 | 1.1 | 7.62 | 0.335 | 2.2 | 0.35 | 1.47 | 0.447 | 51.2 |  |  | 20.7 | 1.8 | 2.72 | 2.68 | 0.463 | 0.371 | 0.296 | 0.503 |
| COc1ccc(C2=Nn3c(nnc3-n3nc(C)cc3C)SC2)cc1 | 0.0694 | > 100 |  | > 100 |  |  | 0.0489 | 4.23 | 0.298 | > 100 | 0.0214 |  | > 100 | 0.218 | > 100 | > 100 | 0.038 | 0.046 | 0.05 | 0.0532 |
| Nc1ccccc1C#Cc1ccccc1C#Cc1cccs1 | 14 | 27.5 | 17.7 | 43.3 | 16.1 | 37.3 | 7.59 | 22.3 | 14.5 | 29.1 | 82.7 | > 100 | 70.1 |  | 33.5 | 27.3 | 19.9 |  | 13.1 | 13.6 |
